From patent US10562857B2 (AFASCI, Inc., priority 2015, dated 2020) come the findings set out here.

The subject of test [1] is harmaline-induced tremor in mice. The test can be described thus: Harmaline-induced essential tremor model in mice. It is filed as in vivo, mouse. Here is the method: FIG. 12. Effects of EXAMPLE-128 on harmaline-induced essential tremor model in mice. Harmaline was dissolved in saline and administrated at 10 mg/kg (S.C.) mice (C57BL/6, male, 3-5 months). Ten minutes after tremors occurred, mice were treated with either EXAMPLE-128 (30 mg/kg, I.P.) or vehicle (2% DMSO in 0.5% HPC).
Harmaline can induce tremors modeling human essential tremor manifested as postural and kinetic tremors (Nahab et al., 2012). Harmaline was dissolved in saline and administrated at 10 mg/kg (s.c.) to mice (C57BL/6, male, 3 months) and the mice were immediately returned to homecage monitor with an piezoelectric sensor operated by the SmartCage™ for continual recordings for 60 min. […] Mice were randomly assigned to be treated with EXAMPLE-128 (3, 10 or 30 mg/kg, I.P.) or vehicle (2% DMSO in 0.5% HPC), starting ten min after tremors began, Tremor episode numbers and each episode's duration were offline human scored.

The next test relates to CFA mice. Put plainly: Complete Freund's Adjuvant (CFA)-induced inflammatory pain in mice, von Frey test. It is filed as in vivo, mouse. Conditions: 30 mg/kg I.P. Here is the method:
FIG. 7. Effects of EXAMPLE-96, 107 or 115 (each 30 mg/kg, I.P.) or gabapentin (as a benchmark, 100 mg/kg, I.P) on Complete Freund's Adjuvant (CFA)-induced inflammation in male, mice (C57BL/6, ˜2 months old; n=8 mice per group). Mechanical pain threshold assessment of CFA mice's left hindpaws were measured using von Frey monofilament test at 0.5, 1, 2, 4, and 6 hours after treatment.
Because knockout or antisense knockdown of the Cav3.2 isoform produces analgesic effects in neuropathic pain as well as in inflammatory pain in mice (Choi et al., 2007), we used the Complete Freund adjuvant (CFA)-inflammatory pain in mice to investigate the drug effects. EXAMPLE-96, -115, and -107 (each at 30 mg/kg, I.P.) and a reference gabapentin (100 mg/kg, I.P.) was individually administered to mice that had CFA-induced inflammation on their left hindpaws.

With `CC(C)(C)NC(=O)CN1CCC2(CC1)CC2NC(=O)c1cc(F)cc(Cl)c1` (single isomer, unassigned) [Example 128, (S)—N-(6-(2-(tert-Butylamino)-2-oxoethyl)-6-azaspiro[2.5]octan-1-yl)-3-chloro-5-fluorobenzamide or (R)—N-(6-(2-(tert-Butylamino)-2-oxoethyl)-6-azaspiro[2.5]octan-1-yl)-3-chloro-5-fluorobenzamide], in test [1] (harmaline 10 mg/kg S.C., 30 mg/kg I.P.), the “total tremor occurring time in 60 minutes” value is listed as “significantly reduced the total tremor occurring time”. Further, the “total time spent in tremors” value in test [1] (harmaline 10 mg/kg s.c., 3, 10 or 30 mg/kg I.P.) is on record as “significantly reduced the total time spent in tremors in a dose-dependent manner”.
On to `O=C(Nc1nnc(-c2ccccc2)o1)c1ccc(Cl)s1` [Example 115, 5-Chloro-N-(5-phenyl-1,3,4-oxadiazol-2-yl)thiophene-2-carboxamide], for which the “mechanical pain threshold, CFA-induced inflammation” value with CFA mice is recorded as “showed an analgesic effect in mechanical pain”.
